Test results from patent US10336730B2, “Substituted glycine derived FXIA inhibitors” (BRISTOL-MYERS SQUIBB COMPANY, priority 2015, dated 2019).

Target: T1, purified human Factor XIa (Homo sapiens, UniProt P03951)
T1 construct: purchased Haematologic Technologies
Assay: Factor XIa enzyme inhibition assay (chromogenic substrate S-2366), Ki
Assay type: biochemical
Conditions: substrate S-2366, pH 7.4
In short: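 Purified human Factor XIa ([…] final) with chromogenic substrate S-2366 (0.0002-0.001 M) in 50 mM HEPES pH 7.4, 145 mM NaCl, 5 mM KCl, 0.1% PEG 8000. Velocities measured over 20-180 minutes with and without inhibitor; Ki derived assuming competitive inhibition, e.g. Ki=IC50/(1+S/Km).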

T1 sequence (P03951 388-625 limits assumed): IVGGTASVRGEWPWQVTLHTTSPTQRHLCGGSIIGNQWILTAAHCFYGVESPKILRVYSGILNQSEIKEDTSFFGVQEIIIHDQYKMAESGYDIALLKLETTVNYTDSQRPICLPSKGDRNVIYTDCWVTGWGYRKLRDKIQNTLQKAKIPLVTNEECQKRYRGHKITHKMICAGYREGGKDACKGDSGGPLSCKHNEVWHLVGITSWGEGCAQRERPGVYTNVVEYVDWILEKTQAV
T1 sequence (P03951 19-387 partner limits assumed): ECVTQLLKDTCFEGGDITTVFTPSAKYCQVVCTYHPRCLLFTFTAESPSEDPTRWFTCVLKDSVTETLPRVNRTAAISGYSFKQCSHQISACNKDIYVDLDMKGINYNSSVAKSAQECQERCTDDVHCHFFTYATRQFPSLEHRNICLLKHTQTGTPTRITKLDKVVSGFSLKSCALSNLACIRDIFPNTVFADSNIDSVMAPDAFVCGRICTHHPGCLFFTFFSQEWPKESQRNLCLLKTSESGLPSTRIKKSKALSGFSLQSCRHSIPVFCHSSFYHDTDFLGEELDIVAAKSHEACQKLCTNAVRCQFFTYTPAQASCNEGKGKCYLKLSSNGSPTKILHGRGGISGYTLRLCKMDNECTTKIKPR

Compound | Ki [nM]
NC(=O)c1ccc(NC(=O)[C@H](Cc2ccccc2)n2cnc(-c3cc(Cl)ccc3-n3cc(Cl)nn3)cc2=O)nc1 [Example 111, (S)-6-(2-(4-(5-chloro-2-(4-chloro-1H-1,2,3-triazol-1-yl)phenyl)-6-oxopyrimidin-1(6H)-yl)-3-phenylpropanamido)nicotinamide] | 106
CC1(C)Oc2ccc(NC(=O)[C@H](Cc3ccccc3)n3cnc(-c4cc(Cl)ccc4-n4cc(Cl)nn4)cc3=O)nc2NC1=O [Example 35, (S)-2-(4-(5-chloro-2-(4-chloro-1H-1,2,3-triazol-1-yl)phenyl)-6-oxopyrimidin-1(6H)-yl)-N-(2,2-dimethyl-3-oxo-3,4-dihydro-2H-pyrido[3,2-b][1,4]oxazin-6-yl)-3-phenylpropanamide] | 4070
O=C(NCCc1cnccn1)[C@H](Cc1ccccc1)n1cnc(-c2cc(Cl)ccc2-n2cc(Cl)nn2)cc1=O [Example 100, (S)-2-(4-(5-chloro-2-(4-chloro-1H-1,2,3-triazol-1-yl)phenyl)-6-oxopyrimidin-1(6H)-yl)-3-phenyl-N-(2-(pyrazin-2-yl)ethyl)propanamide] | 7050
NS(=O)(=O)c1ccc(CNC(=O)[C@H](Cc2ccccc2)n2cnc(-c3cc(Cl)ccc3-n3cc(Cl)nn3)cc2=O)cc1 [Example 64, (S)-2-(4-(5-chloro-2-(4-chloro-1H-1,2,3-triazol-1-yl)phenyl)-6-oxopyrimidin-1(6H)-yl)-3-phenyl-N-(4-sulfamoylbenzyl)propanamide] | 1270
Cc1nc2ccc(NC(=O)[C@H](Cc3ccccc3)n3cnc(-c4cc(Cl)ccc4-n4cc(Cl)nn4)cc3=O)cc2o1 [Example 33, (S)-2-(4-(5-chloro-2-(4-chloro-1H-1,2,3-triazol-1-yl)phenyl)-6-oxopyrimidin-1(6H)-yl)-N-(2-methylbenzo[d]oxazol-6-yl)-3-phenylpropanamide] | 37.8
O=C(Nc1ccnc2ccc(C(F)(F)F)cc12)[C@H](Cc1ccccc1)n1cnc(-c2cc(Cl)ccc2-n2cc(Cl)nn2)cc1=O [Example 123, (S)-2-(4-(5-chloro-2-(4-chloro-1H-1,2,3-triazol-1-yl)phenyl)-6-oxopyrimidin-1(6H)-yl)-3-phenyl-N-(6-(trifluoromethyl)quinolin-4-yl)propanamide] | 7150
O=C(Nc1cccc2ncccc12)[C@H](Cc1ccccc1)n1cnc(-c2cc(Cl)ccc2-n2cc(Cl)nn2)cc1=O [Example 29, (S)-2-(4-(5-chloro-2-(4-chloro-1H-1,2,3-triazol-1-yl)phenyl)-6-oxopyrimidin-1(6H)-yl)-3-phenyl-N-(quinolin-5-yl)propanamide] | 162
O=C(O)c1ccc(NC(=O)[C@H](Cc2ccc(NC(=O)C3CC3)cc2)N2CCC(c3c(F)ccc(Cl)c3F)=CC2=O)cc1 [Example 140, (S)-4-(2-(4-(3-chloro-2,6-difluorophenyl)-6-oxo-3,6-dihydropyridin-1(2H)-yl)-3-(4-(cyclopropanecarboxamido)phenyl)propanamido)benzoic Acid] | 552
CCOC(=O)Cc1ccc(NC(=O)[C@H](Cc2ccccc2)n2cnc(-c3cc(Cl)ccc3-n3cc(Cl)nn3)cc2=O)cc1 [Example 20, ethyl (S)-2-(4-(2-(4-(5-chloro-2-(4-chloro-1H-1,2,3-triazol-1-yl)phenyl)-6-oxopyrimidin-1(6H)-yl)-3-phenylpropanamido)phenyl)acetate] | 128
CCOC(=O)c1ccc(NC(=O)[C@H](Cc2ccccc2)n2cnc(-c3cc(Cl)ccc3-n3cc(Cl)nn3)cc2=O)cc1 [Example 42, ethyl (S)-4-(2-(4-(5-chloro-2-(4-chloro-1H-1,2,3-triazol-1-yl)phenyl)-6-oxopyrimidin-1(6H)-yl)-3-phenylpropanamido)benzoate] | 196
O=C(Nc1ccc2[nH]ccc2n1)[C@H](Cc1ccccc1)n1cnc(-c2cc(Cl)ccc2-n2cc(Cl)nn2)cc1=O [Example 47, (S)-2-(4-(5-chloro-2-(4-chloro-1H-1,2,3-triazol-1-yl)phenyl)-6-oxopyrimidin-1(6H)-yl)-3-phenyl-N-(1H-pyrrolo[3,2-b]pyridin-5-yl)propanamide] | 154
O=C(Nc1n[nH]c2ccccc12)[C@H](Cc1ccccc1)n1cnc(-c2cc(Cl)ccc2-n2cc(Cl)nn2)cc1=O [Example 125, (S)-2-(4-(5-chloro-2-(4-chloro-1H-1,2,3-triazol-1-yl)phenyl)-6-oxopyrimidin-1(6H)-yl)-N-(1H-indazol-3-yl)-3-phenylpropanamide] | 66.9
COc1ccc(CNC(=O)[C@H](Cc2ccccc2)n2cnc(-c3cc(Cl)ccc3-n3cc(Cl)nn3)cc2=O)cc1 [Example 75, (S)-2-(4-(5-chloro-2-(4-chloro-1H-1,2,3-triazol-1-yl)phenyl)-6-oxopyrimidin-1(6H)-yl)-N-(4-methoxybenzyl)-3-phenylpropanamide] | 1220
O=C(Nc1ccc(OC2CCOCC2)cc1)[C@H](Cc1ccccc1)n1cnc(-c2cc(Cl)ccc2-n2cc(Cl)nn2)cc1=O [Example 41, (S)-2-(4-(5-chloro-2-(4-chloro-1H-1,2,3-triazol-1-yl)phenyl)-6-oxopyrimidin-1(6H)-yl)-3-phenyl-N-(4-((tetrahydro-2H-pyran-4-yl)oxy)phenyl)propanamide] | 117
O=C(NC1CCc2ccccc21)[C@H](Cc1ccccc1)n1cnc(-c2cc(Cl)ccc2-n2cc(Cl)nn2)cc1=O (stereo partly drawn) [Example 127, (2S)-2-(4-(5-chloro-2-(4-chloro-1H-1,2,3-triazol-1-yl)phenyl)-6-oxopyrimidin-1(6H)-yl)-N-(2,3-dihydro-1H-inden-1-yl)-3-phenylpropanamide] | 837
O=C(Nc1noc2ccccc12)[C@H](Cc1ccccc1)n1cnc(-c2cc(Cl)ccc2-n2cc(Cl)nn2)cc1=O [Example 121, (S)-N-(benzo[d]isoxazol-3-yl)-2-(4-(5-chloro-2-(4-chloro-1H-1,2,3-triazol-1-yl)phenyl)-6-oxopyrimidin-1(6H)-yl)-3-phenylpropanamide] | 158

More lines, now with the values ahead:

Ki [nM] | Compound
1480 | Cc1cnc(CNC(=O)[C@H](Cc2ccccc2)n2cnc(-c3cc(Cl)ccc3-n3cc(Cl)nn3)cc2=O)cn1 [Example 51, (S)-2-(4-(5-chloro-2-(4-chloro-1H-1,2,3-triazol-1-yl)phenyl)-6-oxopyrimidin-1(6H)-yl)-N-((5-methylpyrazin-2-yl)methyl)-3-phenylpropanamide]
12200 | CN1CCC2(CCCN(C(=O)[C@H](Cc3ccccc3)n3cnc(-c4cc(Cl)ccc4-n4cc(Cl)nn4)cc3=O)C2)C1=O (stereo partly drawn) [Example 66, 7-((S)-2-(4-(5-chloro-2-(4-chloro-1H-1,2,3-triazol-1-yl)phenyl)-6-oxopyrimidin-1(6H)-yl)-3-phenylpropanoyl)-2-methyl-2,7-diazaspiro[4.5]decan-1-one]
2520 | NS(=O)(=O)C1CCN(C(=O)[C@H](Cc2ccccc2)n2cnc(-c3cc(Cl)ccc3-n3cc(Cl)nn3)cc2=O)CC1 [Example 84, (S)-1-(2-(4-(5-chloro-2-(4-chloro-1H-1,2,3-triazol-1-yl)phenyl)-6-oxopyrimidin-1(6H)-yl)-3-phenylpropanoyl)piperidine-4-sulfonamide]
5920 | CN(C)CCCNC(=O)[C@H](Cc1ccccc1)n1cnc(-c2cc(Cl)ccc2-n2cc(Cl)nn2)cc1=O [Example 90, (S)-2-(4-(5-chloro-2-(4-chloro-1H-1,2,3-triazol-1-yl)phenyl)-6-oxopyrimidin-1(6H)-yl)-N-(3-(dimethylamino)propyl)-3-phenylpropanamide]
257 | O=C(Nc1nnc(C2CCC2)[nH]1)[C@H](Cc1ccccc1)n1cnc(-c2cc(Cl)ccc2-n2cc(Cl)nn2)cc1=O [Example 110, (S)-2-(4-(5-chloro-2-(4-chloro-1H-1,2,3-triazol-1-yl)phenyl)-6-oxopyrimidin-1(6H)-yl)-N-(5-cyclobutyl-4H-1,2,4-triazol-3-yl)-3-phenylpropanamide]
4890 | O=C([C@H](Cc1ccccc1)n1cnc(-c2cc(Cl)ccc2-n2cc(Cl)nn2)cc1=O)N1CCN(c2ccncc2)CC1 [Example 57, (S)-6-(5-chloro-2-(4-chloro-1H-1,2,3-triazol-1-yl)phenyl)-3-(1-oxo-3-phenyl-1-(4-(pyridin-4-yl)piperazin-1-yl)propan-2-yl)pyrimidin-4(3H)-one]
4450 | O=C([C@H](Cc1ccccc1)n1cnc(-c2cc(Cl)ccc2-n2cc(Cl)nn2)cc1=O)N1CCOCC1 [Example 78, (S)-6-(5-chloro-2-(4-chloro-1H-1,2,3-triazol-1-yl)phenyl)-3-(1-morpholino-1-oxo-3-phenylpropan-2-yl)pyrimidin-4(3H)-one]
4440 | O=C([C@H](Cc1ccccc1)n1cnc(-c2cc(Cl)ccc2-n2cc(Cl)nn2)cc1=O)N1CCC(c2ccc(Cl)cc2)CC1 [Example 52, (S)-6-(5-chloro-2-(4-chloro-1H-1,2,3-triazol-1-yl)phenyl)-3-(1-(4-(4-chlorophenyl)piperidin-1-yl)-1-oxo-3-phenylpropan-2-yl)pyrimidin-4(3H)-one]
8980 | NC(=O)CNC(=O)[C@H](Cc1ccccc1)n1cnc(-c2cc(Cl)ccc2-n2cc(Cl)nn2)cc1=O [Example 62, (S)-N-(2-amino-2-oxoethyl)-2-(4-(5-chloro-2-(4-chloro-1H-1,2,3-triazol-1-yl)phenyl)-6-oxopyrimidin-1(6H)-yl)-3-phenylpropanamide]
1940 | CCCNC(=O)[C@H](Cc1ccccc1)n1cnc(-c2cc(Cl)ccc2-n2cc(Cl)nn2)cc1=O [Example 89, (S)-2-(4-(5-chloro-2-(4-chloro-1H-1,2,3-triazol-1-yl)phenyl)-6-oxopyrimidin-1(6H)-yl)-3-phenyl-N-propylpropanamide]
341 | Cn1cc(NC(=O)[C@H](Cc2ccccc2)n2cnc(-c3cc(Cl)ccc3-n3cc(Cl)nn3)cc2=O)nn1 [Example 32, (S)-2-(4-(5-chloro-2-(4-chloro-1H-1,2,3-triazol-1-yl)phenyl)-6-oxopyrimidin-1(6H)-yl)-N-(1-methyl-1H-1,2,3-triazol-4-yl)-3-phenylpropanamide]
